Measurements from patent US20260118350A1, “Fluorescent Probes for Peroxidase-Mediated Fluorescent Signal Amplification” (Seoul National University R&DB Foundation, priority 2024, published 2026).

Key:
[1] = tested on: HeLa cells transiently expressing TMEM192-V5-APEX2; assay: Lysosome diameter and lysosome-mitochondria contact under lysosomal stressors (JFT1 labeling by TMEM192-V5-APEX2); assay type: cell-based, Human; conditions: for fold increase of lysosomal diameter vs DMSO treatment / mean lysosomal diameter: BFA 100 nM or U18666A 2 μg/ml, 18 h; for mitochondria-lysosome co-localization: HeLa cells co-expressing mito-mEosEM and TMEM192-V5-APEX2; for mean lysosomal diameter: mean (±SEM)
Procedure: Fluorescently labeled lysosome (JFT1-labeled or Lysotracker Red, RFP channel) and mitochondria (mito-mEosEM, GFP channel) area were analyzed using Fiji/ImageJ (National Institutes of Health, USA). Area corresponding to the colocalization of lysosome-mitochondria were delimited manually by thresholding keeping the same threshold for control. The colocalized area was measured for 5 cells in each group. To measure lysosome diameter, we utilized Fiji/ImageJ. Initially, the images were converted to 8-bit and the pixel measurements were calibrated using a scale bar. Circular lysosomes were then selected and a line representing the diameter of each selected lysosome was drawn, referencing the limiting membrane according to the JFT1 fluorescence signal. Subsequently, we utilized the “analyze and measure” feature of ImageJ, which generates a table with various parameters such as area and length. To convert the length from pixels to micrometers, we applied the following formula: (pixel diameter/pixels on the scale bar)×10 μm. Once the values were converted, they were plotted and statistical analysis for unpaired t-test was performed using Prism GraphPad software ([…] et al., 2021). HeLa cells transiently expressing TMEM192-V5-APEX2 were plated on coverslips (thickness no. 1.5, radius 18 mm). The cells were then treated with DMSO or U18666A (2 ug/ml), Bafilomycin A1 (100 nM) in DMEM for 18 h at 37° C. and washed three times with cold DPBS. The cells were fixed in 4% paraformaldehyde for 15 min at room temperature. Next, JFT1 labeling was done using 100 μM of the probe and 1 mM H2O2 for 5 min. Reaction was quenched and cells were permeabilized for immunofluorescence imaging with cold methanol for 5 min at -20° C., followed by washing with DPBS and blocking for 1 h with 2% bovine serum albumin in DPBS at room temperature.

TOM20-V5-APEX2 = assay: Live-cell APEX labeling using JF probes; assay type: cell-based, Human; conditions: 5 min pre-incubation, 1 mM H2O2 1 min, TOM20-V5-APEX2-expressing cells
Procedure: To visualize various APEX2-POIs in live cells, JF or JFA (50-100 μM) and 1 mM H2O2 were treated to APEX2-POI expressing cells during the live stage. After treatment, cells were washed thrice with DPBS and then fixed with 4% PFA in 1×DPBS for 15 minutes at room temperature. For immuno-fluorescence imaging, cells were permeabilized with −20° C. methanol for 5 minutes, followed by the standard immunofluorescence staining protocol. To detect JF or JFA fluorescence and immunofluorescence, we used the GFP channel (excitation at 488 nm), RFP channel (excitation at 561 nm), and Cy5 channel (excitation at 647 nm) of a confocal light microscope (FV3000, Olympus, Japan). HeLa cells were used for imaging experiments.
Further, the APEX reaction in live cells utilizing the JF probes in cells expressing TOM20-V5-APEX2 at the cytosolic face of the outer mitochondrial membrane (OMM) were examined. Each JF probe (JF, JFA, JFT1, JFT2, and JFT3) was pre-incubated with the cells for 5 min, followed by the addition of 1 mM H2O2 and incubation for 1 min to activate the peroxidase.

endogenous peroxidases = assay: Reaction with endogenous peroxidases in live cells; assay type: cell-based; conditions: high concentrations (≥100 μM) for 1 h in live cells
Procedure: However, our focus was on utilizing JFT for CLEM imaging under fixed conditions. For live-cell APEX2 labeling experiments, JF or JFA (50-100 μM) was incubated with 1 mM H2O2 for 1 min. Both JF and JFA are cell-permeable and can react with APEX2 under live-cell conditions. […] We observed that a 5-min incubation of high concentrations of JFT1 ([…]) and H2O2 (0.5-1 mM) can generate selective FLEX labeling where APEX2-POIs are expressed (see Methods for details). For live-cell experiments, it would be highly advantageous to further develop JF probes with negligible activity against endogenous peroxidase in live-cell conditions while still maintaining reactivity for the APEX or HRP reaction. Since JFT was synthesized from JFA, this strategy opens up the possibility of generating further variations in JFT or other JF-based probes using various azido-click moieties. This approach could lead to the development of improved probes with enhanced performance for live-cell imaging applications.

HRP = target: T1, HRP (Armoracia rusticana, UniProt P00433); assay: Polymerization of JF catalyzed by HRP; assay type: biochemical, horseradish
T1 sequence (P00433 31-338 limits assumed): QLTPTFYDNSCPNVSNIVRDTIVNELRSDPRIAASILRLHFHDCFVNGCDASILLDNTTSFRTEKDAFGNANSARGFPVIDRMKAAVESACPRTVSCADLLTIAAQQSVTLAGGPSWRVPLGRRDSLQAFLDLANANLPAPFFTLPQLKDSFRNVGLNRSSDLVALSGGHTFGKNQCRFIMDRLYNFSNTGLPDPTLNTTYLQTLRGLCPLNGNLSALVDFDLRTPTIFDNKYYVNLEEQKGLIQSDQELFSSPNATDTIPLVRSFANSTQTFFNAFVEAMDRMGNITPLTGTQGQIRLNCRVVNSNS
Procedure: JF (400 μM) was prepared by dissolving the powder in DMSO. To induce the polymerization of JF, 10 μM of HRP was added along with 2 mM H2O2. JF-precipitate starts forming after 30 minutes of incubation with HRP and H2O2. This reaction was carried out at room temperature for 24 h to acquire the polymerized JF. The mixture was centrifuged at 15,000 g for 10 min to separate the polymerized JF product from non-reacted JF.

Compound	fold increase of lysosomal diameter vs DMSO treatment [1]	mitochondria-lysosome co-localization [1]	mean lysosomal diameter [1]	fluorescence staining in live cells (TOM20-V5-APEX2)	reactivity with endogenous peroxidases (endogenous peroxidases)	precipitate formation upon HRP-mediated reaction (HRP; HRP and H2O2)	time at which JF-precipitate starts forming (HRP; JF 400 μM, 10 μM HRP, 2 mM H2O2, room temperature)
CCN(CC)CCO[C@H]1CC[C@@]2(C)C(=CC[C@@H]3[C@@H]2CC[C@]2(C)C(=O)CC[C@@H]32)C1 [U18666A]	2.2 fold	enhanced co-localization	0.87 μm	–	–	–	–
CC[n+]1c(/C=C/c2ccc(O)cc2)sc2ccccc21 [JF, (E)-3-ethyl-2-(4-hydroxystyryl)benzo[d]thiazol-3-ium, reference compound]	–	–	–	red fluorescence stains	can also react with endogenous peroxidases	macroscopic precipitate deposition	30 min
C#CC[n+]1c(/C=C/c2ccc(O)cc2)sc2ccccc21 [JFA, (E)-2-(4-hydroxystyryl)-3-(prop-2-yn-1-yl)benzo[d]thiazol-3-ium]	–	–	–	red fluorescence stains	can also react with endogenous peroxidases	–	–
CO/C1=C\C(C)=C\[C@@H](C)[C@@H](O)[C@@H](C)C/C(C)=C/C=C/[C@H](OC)[C@@H]([C@@H](C)[C@@H](O)[C@H](C)[C@@]2(O)C[C@@H](O)[C@H](C)[C@@H](C(C)C)O2)OC1=O [Bafilomycin A1]	2.7 fold	more merged patterns	1.20 μm	–	–	–	–
